The values below come from BindingDB's records for doi:10.7270/Q2Q52N1X (Vanderbilt Screening Center for GPCRs, Ion Channels and …, 2009).

Structures are written as SMILES. pEC50: −log10 of the molar value.

The first experiment addresses T1, Solute carrier family 12 member 5 (Homo sapiens, UniProt Q9H2X9).
T1 sequence (Q9H2X9 whole entry): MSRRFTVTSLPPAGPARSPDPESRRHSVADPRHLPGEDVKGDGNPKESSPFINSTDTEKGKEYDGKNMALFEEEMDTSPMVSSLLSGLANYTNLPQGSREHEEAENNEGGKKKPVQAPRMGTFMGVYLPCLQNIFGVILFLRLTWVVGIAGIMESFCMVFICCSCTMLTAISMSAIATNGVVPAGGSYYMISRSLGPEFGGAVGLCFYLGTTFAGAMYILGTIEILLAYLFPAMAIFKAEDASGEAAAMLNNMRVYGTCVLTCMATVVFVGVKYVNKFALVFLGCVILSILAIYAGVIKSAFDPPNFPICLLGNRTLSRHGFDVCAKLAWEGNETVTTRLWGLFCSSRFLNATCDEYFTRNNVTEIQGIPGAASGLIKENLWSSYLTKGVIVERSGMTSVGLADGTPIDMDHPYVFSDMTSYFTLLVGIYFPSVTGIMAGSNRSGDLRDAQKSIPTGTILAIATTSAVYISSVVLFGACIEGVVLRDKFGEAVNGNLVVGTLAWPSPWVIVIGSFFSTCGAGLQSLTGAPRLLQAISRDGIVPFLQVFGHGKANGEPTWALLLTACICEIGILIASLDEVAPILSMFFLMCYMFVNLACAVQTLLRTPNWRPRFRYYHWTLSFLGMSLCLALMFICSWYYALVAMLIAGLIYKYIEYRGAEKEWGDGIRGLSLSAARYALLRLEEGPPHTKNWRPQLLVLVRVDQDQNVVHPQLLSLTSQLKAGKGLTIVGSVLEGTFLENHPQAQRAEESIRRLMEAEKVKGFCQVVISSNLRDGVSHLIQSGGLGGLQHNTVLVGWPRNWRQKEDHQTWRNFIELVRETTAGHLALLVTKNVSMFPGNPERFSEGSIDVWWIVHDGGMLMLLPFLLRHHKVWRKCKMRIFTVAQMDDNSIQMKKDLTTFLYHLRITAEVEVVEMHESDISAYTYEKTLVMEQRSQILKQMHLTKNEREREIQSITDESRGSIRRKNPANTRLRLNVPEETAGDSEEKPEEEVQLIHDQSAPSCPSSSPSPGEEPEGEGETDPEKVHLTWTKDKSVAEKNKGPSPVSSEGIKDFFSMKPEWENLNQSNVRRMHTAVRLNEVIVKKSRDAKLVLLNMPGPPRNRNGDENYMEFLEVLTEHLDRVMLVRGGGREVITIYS
The experiment in a line: KCC2 modulator potency by thallium flux, dose response, cell-based, HEK293 KCC2, FluoZin-2 fluorescence (AID 1736).
Details: not given
One may read the pEC50 as −log10 of the EC50, conventionally taken in molar units. Low values mean a large EC50, high ones a small EC50. As to `N#Cc1nc(Cc2cccc3ccccc23)oc1NCCN1CCOCC1` [5-(2-Morpholin-4-yl-ethylamino)-2-naphthalen-1-ylmethyl-oxazole-4-carbonitrile], the pEC50 was 4.99.

`COc1cccc(Nc2nnc(S)s2)c1` [5-(3-methoxyanilino)-3H-1,3,4-thiadiazole-2-thione]: the pEC50 is 5.55.

`Sc1nnc(COc2ccc(Cl)cc2)o1` [5-(4-Chloro-phenoxymethyl)-3H-[1,3,4]oxadiazole-2-thione] showed a pEC50 of 5.39.

In turn, `N#Cc1nc(-c2cccs2)oc1N1CCN(Cc2ccccc2)CC1` [5-(4-benzyl-1-piperazinyl)-2-(2-thienyl)-1,3-oxazole-4-carbonitrile] gave a pEC50 of 4.93.

Compound `N#Cc1nc(Cc2cccc3ccccc23)oc1N1CCOCC1` [5-(4-morpholinyl)-2-(1-naphthalenylmethyl)-4-oxazolecarbonitrile] showed a pEC50 of 5.75.

Regarding `O=C(NCC1CCCO1)C(c1cccs1)N(C(=O)c1ccc(-c2ccccc2)[nH]1)C1CCCC1` (stereo unspecified) [5-Phenyl-1H-pyrrole-2-carboxylic acid cyclopentyl-{[(tetrahydro-furan-2-ylmethyl)-carbamoyl]-thiophen-2-yl-methyl}-amide], the pEC50 is 5.25.

`Cc1ccc(Cn2nnc3c(=O)[nH]c(C4CCN(S(=O)(=O)c5ccc(F)cc5)CC4)nc32)cc1` [5-[1-(4-fluorophenyl)sulfonylpiperidin-4-yl]-3-[(4-methylphenyl)methyl]-2H-triazolo[4,5-d]pyrimidin-7-one] showed a pEC50 of 4.95.

Compound `Cc1cccc(OCCc2nnc(N)s2)c1C` [5-[2-(2,3-Dimethyl-phenoxy)-ethyl]-[1,3,4]thiadiazol-2-ylamine] showed a pEC50 of 4.28.

Compound `Sc1nnc(CCc2ccc(Cl)cc2)o1` [5-[2-(4-chlorophenyl)ethyl]-1,3,4-oxadiazole-2-thiol] had a pEC50 of 5.61.

With `O=C(NCc1cccnc1)c1ccc(COc2ccc(Cl)cc2Cl)o1` [5-[(2,4-dichlorophenoxy)methyl]-N-(3-pyridinylmethyl)-2-furancarboxamide], the negative logarithm of the EC50 (pEC50) is 2.69.

On to `O=C(Nc1cccnc1)c1ccc(COc2cc(Cl)ccc2Cl)o1` [5-[(2,5-dichlorophenoxy)methyl]-N-(3-pyridinyl)-2-furancarboxamide], for which the pEC50 is 3.97.

The compound `O=C(NCc1ccc2c(c1)OCO2)c1ccc(COc2cc(Cl)ccc2Cl)o1` [5-[(2,5-dichlorophenoxy)methyl]-N-piperonyl-2-furamide] showed a pEC50 of 5.19.

Regarding `O=C(NCCc1cn2ccccc2n1)c1cc(COc2c(F)cccc2F)on1` [5-[(2,6-difluorophenoxy)methyl]-N-(2-imidazo[1,2-a]pyridin-2-ylethyl)-1,2-oxazole-3-carboxamide], the negative logarithm of the EC50 (pEC50) was 5.12.

Regarding `O=C(NCc1cccnc1)c1ccc(COc2ccccc2Br)o1` [5-[(2-bromanylphenoxy)methyl]-N-(pyridin-3-ylmethyl)furan-2-carboxamide], the pEC50 was 5.04.

The compound `O=C(Nc1cccnc1)c1ccc(COc2ccccc2Br)o1` [5-[(2-bromanylphenoxy)methyl]-N-pyridin-3-yl-furan-2-carboxamide] showed a pEC50 of 5.28.

`Sc1nnc(CNc2cccc(Cl)c2)o1` [5-[(3-chloroanilino)methyl]-3H-1,3,4-oxadiazole-2-thione] showed a negative-log EC50 (pEC50) of 5.83.

`Sc1nnc(Nc2ccccc2)s1` [5-anilino-3H-1,3,4-thiadiazole-2-thione] showed a negative-log EC50 (pEC50) of 5.60.

Compound `CCCn1c(N)c(C(=O)CSc2nnc(Cc3ccccc3)o2)c(=O)n(C)c1=O` [6-amino-3-methyl-5-[1-oxo-2-[[5-(phenylmethyl)-1,3,4-oxadiazol-2-yl]thio]ethyl]-1-propylpyrimidine-2,4-dione] showed a negative-log EC50 (pEC50) of 9.96.

In the case of `O=c1[nH]c2ccc(S(=O)(=O)N3CCN(c4ccccc4F)CC3)cc2s1` [6-{[4-(2-fluorophenyl)piperazin-1-yl]sulfonyl}-1,3-benzothiazol-2(3H)-one], the negative-log EC50 (pEC50) is 5.09.

Compound `CCc1ccc(Nc2nnc(SCc3cc(=O)n4ccsc4n3)s2)cc1` [7-[[5-(4-ethylanilino)-1,3,4-thiadiazol-2-yl]sulfanylmethyl]-[1,3]thiazolo[3,2-a]pyrimidin-5-one] gave a pEC50 of 6.55.

The compound `O=c1c(-c2cnn(-c3ccccc3)c2)coc2cc(O)ccc12` [7-hydroxy-3-(1-phenyl-1H-pyrazol-4-yl)-4H-chromen-4-one] showed a negative logarithm of the EC50 (pEC50) of 4.70.

In turn, `O=C(C1CCN(c2nc3ccc(Br)cc3s2)CC1)N1CCC2(CC1)OCCO2` [8-{[1-(6-bromo-1,3-benzothiazol-2-yl)piperidin-4-yl]carbonyl}-1,4-dioxa-8-azaspiro[4.5]decane] showed a pEC50 of 5.15.

`c1ccc(-n2cnc3cc(NCc4ccncc4)ccc32)cc1` [(1-phenylbenzimidazol-5-yl)-(4-pyridylmethyl)amine] showed a pEC50 of 5.26.

`COc1ccc(NC(=S)NC(N)=Nc2nc(C)c3ccccc3n2)cc1` [(1E)-1-[amino-[(4-methyl-2-quinazolinyl)amino]methylidene]-3-(4-methoxyphenyl)thiourea] showed a pEC50 of 4.15.

With `COc1cc(C(=S)N2CCOCC2)cc(OC)c1OC(=O)Cc1ccc(F)cc1` [(2,6-dimethoxy-4-morpholin-4-ylcarbothioyl-phenyl) 2-(4-fluorophenyl)ethanoate], the negative-log EC50 (pEC50) was 5.40.

Consider `COc1cc(C(=S)N2CCOCC2)cc(OC)c1OC(=O)Cc1ccccc1` [(2,6-dimethoxy-4-morpholin-4-ylcarbothioyl-phenyl) 2-phenylethanoate], for which the pEC50 was 5.94.

Compound `c1ccc(-c2csc(N=NCc3ccco3)n2)cc1` [(2-furfurylideneamino)-(4-phenylthiazol-2-yl)amine] gave a negative logarithm of the EC50 (pEC50) of 4.19.

Compound `COc1cc(C(=S)N2CCOCC2)ccc1OC(=O)Cc1ccc(F)cc1` [(2-methoxy-4-morpholin-4-ylcarbothioyl-phenyl) 2-(4-fluorophenyl)ethanoate] had a negative-log EC50 (pEC50) of 3.86.

For `CC1Cc2ccccc2N1C(=O)c1ccc(N2CCCCC2)c([N+](=O)[O-])c1` (stereo unspecified) [(2-methyl-2,3-dihydroindol-1-yl)-(3-nitro-4-piperidin-1-yl-phenyl)methanone], the negative-log EC50 (pEC50) was 5.80.

The compound `CC1Cc2ccccc2N1C(=O)c1ccc(N2CCCC2)c([N+](=O)[O-])c1` (stereo unspecified) [(2-methyl-2,3-dihydroindol-1-yl)-(3-nitro-4-pyrrolidin-1-yl-phenyl)methanone] gave a pEC50 of 6.44.

In the case of `COC(=O)[C@@H](NC(=O)O[C@@H]1C(=O)c2ccc(OC)cc2O[C@H]1c1cccc(C(F)(F)F)c1)C(C)C` [(2S)-2-[[(2S,3S)-4-keto-7-methoxy-2-[3-(trifluoromethyl)phenyl]chroman-3-yl]oxycarbonylamino]-3-methyl-butyric acid methyl ester], the pEC50 is 5.39.

Turning to `N#CC(C(=O)c1cccc(F)c1)c1nc2ccccc2s1` (stereo unspecified) [(2Z)-2-(3H-1,3-benzothiazol-2-ylidene)-3-(3-fluorophenyl)-3-keto-propionitrile], the pEC50 is 5.02.

For `N#CC(C(=O)COc1ccccc1)c1nc2ccccc2s1` (stereo unspecified) [(2Z)-2-(3H-1,3-benzothiazol-2-ylidene)-3-keto-4-phenoxy-butyronitrile], the pEC50 is 5.18.

On to `COc1ccc(C(=O)N2CCCC(c3ccccc3)C2)cc1` (stereo unspecified) [(4-methoxyphenyl)-(3-phenyl-1-piperidinyl)methanone], for which the pEC50 was 3.96.

In turn, `O=C(c1ccc(-c2ccccc2)cc1)C1CCCN(Cc2ccncc2)C1` (stereo unspecified) [(4-phenylphenyl)-[1-(4-pyridylmethyl)-3-piperidyl]methanone] showed a negative logarithm of the EC50 (pEC50) of 5.12.

`c1ccc(-c2csc(N=NCc3cccnc3)n2)cc1` [(4-phenylthiazol-2-yl)-(3-pyridylmethyleneamino)amine] had a pEC50 of 4.45.

`CCOc1[nH]n(-c2ccccc2)c(=O)c1C=Nc1ccc(F)cc1F` [(4E)-4-[[[2,4-bis(fluoranyl)phenyl]amino]methylidene]-5-ethoxy-2-phenyl-pyrazol-3-one] had a negative-log EC50 (pEC50) of 7.49.

Still in this experiment, the particulars now being: inactive by the depositor's call.
Take `CCOc1ccc(Nc2nnc(S)s2)cc1` [5-(4-ethoxyanilino)-3H-1,3,4-thiadiazole-2-thione]: the negative logarithm of the EC50 (pEC50) was 7.33.

With `O=[N+]([O-])c1ccc(NC2CCN(Cc3ccccc3)CC2)c([N+](=O)[O-])c1` [(1-benzyl-4-piperidyl)-(2,4-dinitrophenyl)amine], the pEC50 was 5.26.

The compound `COc1ccc(/C=C2\CCc3ccccc3C2=O)cc1CN1CCOCC1` [(2E)-2-[4-methoxy-3-(morpholinomethyl)benzylidene]tetralin-1-one] gave a pEC50 of 3.66.

For the compound `CN1C(=CC(=O)C2CCC2)Sc2ccccc21` [(2Z)-1-cyclobutyl-2-(3-methyl-1,3-benzothiazol-2-ylidene)ethanone], the pEC50 was 3.77.
